Experiments:
Test in all cases: PDSP binding screen
serotonin transporter = biological target: T1, serotonin transporter (Homo sapiens, UniProt P31645); details: HCl salt
T1 construct: Psychoactive Drug Screening Program (PDSP)
Excerpt: (§1) The binding of HY-3-24 to various GPCRs was investigated through comprehensive screening by Psychoactive Drug Screening Program (PDSP) (Supplementary Table S1) ([Besnard et al., 2012]). These GPCRs included major neurotransmitter receptors family (e.g., dopamine, serotonin, histamine, opioid, muscarinic, adrenergic, sigma receptors, ɤ-amino-butyric acid type A, and benzodiazepine receptors) and transporters (e.g., dopamine, norepinephrine, and serotonin transporter).

[1] = biological target: benzodiazepine rat brain site; details: HCl salt
Excerpt: as §1

dopamine D1 = dopamine D1 (Homo sapiens, UniProt P21728); details: HCl salt
Excerpt: as §1

dopamine D2 = dopamine D2 (Homo sapiens, UniProt P14416); details: HCl salt, [3H]N-methylspiperone
Excerpt: as §1

adrenergic alpha2C = biological target: T2, adrenergic alpha2C (Homo sapiens, UniProt P18825); details: HCl salt
T2 construct: Psychoactive Drug Screening Program (PDSP)
Excerpt: as §1

sigma2 = biological target: T3, sigma2 (Homo sapiens, UniProt Q5BJF2); details: HCl salt
T3 construct: Psychoactive Drug Screening Program (PDSP)
Excerpt: as §1

[2] = biological target: ɤ-aminobutyric acid type A; details: HCl salt
Excerpt: as §1

Muscarinic M2 = biological target: T4, Muscarinic M2 (Homo sapiens, UniProt P08172); details: HCl salt
T4 construct: Psychoactive Drug Screening Program (PDSP)
Excerpt: as §1

benzodiazepine receptor = details: HCl salt
Excerpt: as §1

Muscarinic M5 = biological target: T5, Muscarinic M5 (Homo sapiens, UniProt P08912); details: HCl salt
T5 construct: Psychoactive Drug Screening Program (PDSP)
Excerpt: as §1

histamine H1 = biological target: T6, histamine H1 (Homo sapiens, UniProt P35367); details: HCl salt
T6 construct: Psychoactive Drug Screening Program (PDSP)
Excerpt: as §1

serotonin 5-HT3 = serotonin 5-HT3 (Homo sapiens, UniProt P46098); details: HCl salt
Excerpt: as §1

serotonin 5-HT2C = serotonin 5-HT2C (Homo sapiens, UniProt P28335); details: HCl salt
Excerpt: as §1

serotonin 5-HT6 = biological target: T7, serotonin 5-HT6 (Homo sapiens, UniProt P50406); details: HCl salt
T7 construct: Psychoactive Drug Screening Program (PDSP)
Excerpt: as §1

adrenergic beta2 = biological target: T8, adrenergic beta2 (Homo sapiens, UniProt P07550); details: HCl salt
T8 construct: Psychoactive Drug Screening Program (PDSP)
Excerpt: as §1

opioid KOR = biological target: T9, opioid KOR (Homo sapiens, UniProt P41145); details: HCl salt
T9 construct: Psychoactive Drug Screening Program (PDSP)
Excerpt: as §1

[3] = biological target: T10, norepinephrine transporter (Homo sapiens, UniProt P23975); details: HCl salt
T10 construct: Psychoactive Drug Screening Program (PDSP)
Excerpt: as §1

Muscarinic M4 = biological target: T11, Muscarinic M4 (Homo sapiens, UniProt P08173); details: HCl salt
T11 construct: Psychoactive Drug Screening Program (PDSP)
Excerpt: as §1

dopamine D4 = dopamine D4 (Homo sapiens, UniProt P21917); details: HCl salt
Excerpt: as §1

sigma1 = biological target: T12, sigma1 (Homo sapiens, UniProt Q99720); details: HCl salt
T12 construct: Psychoactive Drug Screening Program (PDSP)
Excerpt: as §1

dopamine D3 = dopamine D3 (Homo sapiens, UniProt P35462); details: HCl salt, [3H]N-methylspiperone
Excerpt: as §1

adrenergic alpha2B = biological target: T13, adrenergic alpha2B (Homo sapiens, UniProt P18089); details: HCl salt
T13 construct: Psychoactive Drug Screening Program (PDSP)
Excerpt: as §1

serotonin 5-HT2B = serotonin 5-HT2B (Homo sapiens, UniProt P41595); details: HCl salt
Excerpt: as §1

adrenergic alpha2A = biological target: T14, adrenergic alpha2A (Homo sapiens, UniProt P08913); details: HCl salt
T14 construct: Psychoactive Drug Screening Program (PDSP)
Excerpt: as §1

Muscarinic M3 = biological target: T15, Muscarinic M3 (Homo sapiens, UniProt P20309); details: HCl salt
T15 construct: Psychoactive Drug Screening Program (PDSP)
Excerpt: as §1

serotonin 5-HT2A = serotonin 5-HT2A (Homo sapiens, UniProt P28223); details: HCl salt
Excerpt: as §1

T14 sequence (P08913 whole entry): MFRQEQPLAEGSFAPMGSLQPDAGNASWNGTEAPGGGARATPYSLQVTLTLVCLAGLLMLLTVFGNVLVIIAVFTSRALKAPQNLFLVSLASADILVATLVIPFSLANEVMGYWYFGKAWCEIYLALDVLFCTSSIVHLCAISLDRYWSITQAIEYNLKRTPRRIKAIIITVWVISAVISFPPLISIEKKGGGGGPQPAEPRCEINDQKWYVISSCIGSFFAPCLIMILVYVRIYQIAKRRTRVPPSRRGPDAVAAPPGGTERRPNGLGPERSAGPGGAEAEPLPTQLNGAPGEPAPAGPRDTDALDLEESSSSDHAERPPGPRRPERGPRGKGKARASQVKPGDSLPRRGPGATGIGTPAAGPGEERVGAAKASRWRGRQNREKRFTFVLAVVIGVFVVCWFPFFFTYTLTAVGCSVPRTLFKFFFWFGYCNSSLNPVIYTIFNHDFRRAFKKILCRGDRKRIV
Sequence of serotonin 5-HT2A (P28223 whole entry): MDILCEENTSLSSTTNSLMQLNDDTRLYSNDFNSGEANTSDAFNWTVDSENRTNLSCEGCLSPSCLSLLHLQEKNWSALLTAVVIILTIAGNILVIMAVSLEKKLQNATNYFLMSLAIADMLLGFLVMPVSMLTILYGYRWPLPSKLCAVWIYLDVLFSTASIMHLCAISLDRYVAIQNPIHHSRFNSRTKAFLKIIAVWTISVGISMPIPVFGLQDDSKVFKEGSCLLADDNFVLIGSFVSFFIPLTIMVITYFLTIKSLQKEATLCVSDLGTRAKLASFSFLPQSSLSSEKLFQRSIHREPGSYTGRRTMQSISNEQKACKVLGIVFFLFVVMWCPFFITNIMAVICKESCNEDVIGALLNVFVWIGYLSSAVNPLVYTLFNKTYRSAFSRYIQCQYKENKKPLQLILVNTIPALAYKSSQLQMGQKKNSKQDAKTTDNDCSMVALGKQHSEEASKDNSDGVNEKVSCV
T8 sequence (P07550 whole entry): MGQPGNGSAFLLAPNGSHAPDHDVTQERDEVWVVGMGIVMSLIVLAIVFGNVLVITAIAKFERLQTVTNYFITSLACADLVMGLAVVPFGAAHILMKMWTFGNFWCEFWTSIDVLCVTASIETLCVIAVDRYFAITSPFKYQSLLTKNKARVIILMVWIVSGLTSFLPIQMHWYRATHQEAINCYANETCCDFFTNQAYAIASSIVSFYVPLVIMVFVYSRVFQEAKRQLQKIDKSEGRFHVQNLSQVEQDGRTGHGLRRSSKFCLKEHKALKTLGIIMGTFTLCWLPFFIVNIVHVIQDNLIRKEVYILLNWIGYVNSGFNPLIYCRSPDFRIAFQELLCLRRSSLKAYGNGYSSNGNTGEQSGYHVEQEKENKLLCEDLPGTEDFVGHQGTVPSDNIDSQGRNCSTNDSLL
T5 sequence (P08912 whole entry): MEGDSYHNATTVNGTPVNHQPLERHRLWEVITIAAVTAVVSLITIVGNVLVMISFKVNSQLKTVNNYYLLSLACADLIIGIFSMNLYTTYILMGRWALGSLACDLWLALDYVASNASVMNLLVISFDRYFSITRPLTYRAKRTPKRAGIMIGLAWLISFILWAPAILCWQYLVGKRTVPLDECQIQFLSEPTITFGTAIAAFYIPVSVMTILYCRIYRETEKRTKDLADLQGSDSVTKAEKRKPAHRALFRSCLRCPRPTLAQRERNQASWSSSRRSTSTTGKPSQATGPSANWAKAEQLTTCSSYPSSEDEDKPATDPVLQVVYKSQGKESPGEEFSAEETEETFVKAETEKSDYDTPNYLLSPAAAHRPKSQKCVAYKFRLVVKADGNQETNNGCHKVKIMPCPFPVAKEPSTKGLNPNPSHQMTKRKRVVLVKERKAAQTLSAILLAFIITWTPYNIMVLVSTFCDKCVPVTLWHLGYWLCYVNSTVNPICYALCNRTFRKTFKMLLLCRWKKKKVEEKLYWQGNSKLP
T2 sequence (P18825 whole entry): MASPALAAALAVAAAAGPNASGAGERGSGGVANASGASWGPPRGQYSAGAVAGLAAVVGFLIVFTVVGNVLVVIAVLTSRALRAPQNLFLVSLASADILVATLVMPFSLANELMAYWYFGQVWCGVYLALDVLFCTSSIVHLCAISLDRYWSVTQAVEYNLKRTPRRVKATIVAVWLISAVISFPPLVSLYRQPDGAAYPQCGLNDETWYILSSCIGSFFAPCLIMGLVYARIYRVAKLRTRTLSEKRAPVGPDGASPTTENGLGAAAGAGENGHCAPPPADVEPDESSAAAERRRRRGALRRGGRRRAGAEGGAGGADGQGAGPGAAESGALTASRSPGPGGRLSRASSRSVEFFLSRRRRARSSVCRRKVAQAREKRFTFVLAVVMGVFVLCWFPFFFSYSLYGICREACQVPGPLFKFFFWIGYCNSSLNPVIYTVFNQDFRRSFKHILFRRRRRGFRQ
T4 sequence (P08172 whole entry): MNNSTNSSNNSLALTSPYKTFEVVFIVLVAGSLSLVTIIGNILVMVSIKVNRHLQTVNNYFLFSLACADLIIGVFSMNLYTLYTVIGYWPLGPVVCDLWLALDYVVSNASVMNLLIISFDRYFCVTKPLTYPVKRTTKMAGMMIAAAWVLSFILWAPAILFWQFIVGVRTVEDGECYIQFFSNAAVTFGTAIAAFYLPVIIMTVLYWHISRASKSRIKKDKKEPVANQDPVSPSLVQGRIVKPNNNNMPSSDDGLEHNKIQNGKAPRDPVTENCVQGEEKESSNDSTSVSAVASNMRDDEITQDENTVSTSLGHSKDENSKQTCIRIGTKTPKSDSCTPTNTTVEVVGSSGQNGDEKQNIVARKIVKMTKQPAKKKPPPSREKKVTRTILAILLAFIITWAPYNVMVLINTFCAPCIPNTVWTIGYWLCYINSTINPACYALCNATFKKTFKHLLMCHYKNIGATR
T15 sequence (P20309 whole entry): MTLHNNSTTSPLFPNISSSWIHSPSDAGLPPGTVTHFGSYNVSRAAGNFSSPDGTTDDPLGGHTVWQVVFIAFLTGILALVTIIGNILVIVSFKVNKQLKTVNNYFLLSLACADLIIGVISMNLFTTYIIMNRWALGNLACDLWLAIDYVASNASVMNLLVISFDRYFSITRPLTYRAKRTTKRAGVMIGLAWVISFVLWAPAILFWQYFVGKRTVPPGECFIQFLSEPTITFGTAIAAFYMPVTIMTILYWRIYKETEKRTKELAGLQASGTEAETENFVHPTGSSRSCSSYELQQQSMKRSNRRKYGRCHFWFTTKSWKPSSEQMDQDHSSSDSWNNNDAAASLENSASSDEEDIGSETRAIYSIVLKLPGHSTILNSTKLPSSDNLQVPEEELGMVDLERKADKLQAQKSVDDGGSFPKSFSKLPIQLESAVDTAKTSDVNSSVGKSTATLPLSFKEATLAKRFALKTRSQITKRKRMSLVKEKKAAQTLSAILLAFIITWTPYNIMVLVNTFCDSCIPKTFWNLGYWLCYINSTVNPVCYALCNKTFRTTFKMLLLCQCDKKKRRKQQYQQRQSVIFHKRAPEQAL
T1 sequence (P31645 whole entry): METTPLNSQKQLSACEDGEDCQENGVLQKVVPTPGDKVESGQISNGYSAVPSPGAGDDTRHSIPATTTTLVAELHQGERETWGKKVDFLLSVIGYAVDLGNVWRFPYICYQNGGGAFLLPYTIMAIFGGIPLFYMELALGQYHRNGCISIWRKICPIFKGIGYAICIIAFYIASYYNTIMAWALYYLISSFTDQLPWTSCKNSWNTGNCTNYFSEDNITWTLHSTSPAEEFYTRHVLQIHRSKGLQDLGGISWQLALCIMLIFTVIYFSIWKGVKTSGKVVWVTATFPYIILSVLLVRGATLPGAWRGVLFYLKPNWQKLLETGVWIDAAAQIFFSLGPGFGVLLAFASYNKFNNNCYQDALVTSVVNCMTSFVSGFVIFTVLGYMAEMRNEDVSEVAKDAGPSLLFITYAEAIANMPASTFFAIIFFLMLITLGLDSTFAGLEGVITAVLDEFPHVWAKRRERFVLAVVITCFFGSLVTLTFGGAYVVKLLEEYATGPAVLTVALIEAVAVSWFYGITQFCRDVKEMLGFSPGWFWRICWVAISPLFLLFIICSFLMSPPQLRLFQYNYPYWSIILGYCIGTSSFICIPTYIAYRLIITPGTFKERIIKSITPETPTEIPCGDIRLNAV
Sequence of dopamine D3 (P35462 whole entry): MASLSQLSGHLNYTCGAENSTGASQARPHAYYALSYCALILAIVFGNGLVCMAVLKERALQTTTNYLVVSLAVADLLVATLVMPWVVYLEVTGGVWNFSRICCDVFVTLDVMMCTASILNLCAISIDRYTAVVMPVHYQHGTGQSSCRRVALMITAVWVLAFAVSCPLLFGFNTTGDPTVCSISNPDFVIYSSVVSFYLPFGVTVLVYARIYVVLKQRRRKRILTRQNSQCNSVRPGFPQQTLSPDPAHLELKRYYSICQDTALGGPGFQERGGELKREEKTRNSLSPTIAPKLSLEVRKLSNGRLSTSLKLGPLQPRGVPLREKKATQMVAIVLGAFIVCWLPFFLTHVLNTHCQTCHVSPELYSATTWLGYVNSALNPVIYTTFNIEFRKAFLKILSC
Sequence of serotonin 5-HT2C (P28335 33-458): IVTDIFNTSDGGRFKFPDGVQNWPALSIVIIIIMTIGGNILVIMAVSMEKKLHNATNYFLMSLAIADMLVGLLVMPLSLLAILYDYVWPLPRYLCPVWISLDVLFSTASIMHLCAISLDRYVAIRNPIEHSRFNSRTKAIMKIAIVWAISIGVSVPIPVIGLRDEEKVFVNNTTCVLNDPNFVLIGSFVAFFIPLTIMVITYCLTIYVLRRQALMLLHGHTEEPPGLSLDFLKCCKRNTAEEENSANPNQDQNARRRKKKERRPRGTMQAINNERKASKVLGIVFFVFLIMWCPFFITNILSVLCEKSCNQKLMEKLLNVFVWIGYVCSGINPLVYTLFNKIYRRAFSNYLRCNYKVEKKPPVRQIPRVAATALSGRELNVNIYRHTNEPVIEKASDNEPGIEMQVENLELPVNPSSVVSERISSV

For `CCN(CCCNC(=O)c1ccc(-c2ccncc2)cc1)CCNC(=O)c1cc(I)cc(OC)c1OC` [HY-3-24, N-(2-(Ethyl(3-(4-(pyridin-4-yl)benzamido)propyl)amino)ethyl)-5-iodo-2,3-dimethoxybenzamide], the Ki (serotonin transporter) was 677 nM, the “Ki benzodiazepine rat brain site” value [1] was “N.A. (not active, less than 50% inhibition in primary binding assays at 10 µM)” and the “Ki D1” value (dopamine D1) was “N.A. (not active, less than 50% inhibition in primary binding assays at 10 µM)”. The Ki (dopamine D2) was 43 nM, the Ki (adrenergic alpha2C) was 1900 nM and the Ki (sigma2) was 2310 nM. For the same molecule, the Ki [2] was 1120 nM, the Ki (Muscarinic M2) was 832 nM and the Ki (benzodiazepine receptor) was 5640 nM. For the same molecule, the Ki (Muscarinic M5) was 118 nM, the Ki (histamine H1) was 244 nM and the Ki (serotonin 5-HT3) was 904 nM. The Ki (serotonin 5-HT2C) was 613 nM, the Ki (serotonin 5-HT6) was 1040 nM and the Ki (adrenergic beta2) was 5830 nM. For the same molecule, the Ki (opioid KOR) was 1550 nM, the Ki [3] was 5950 nM and the Ki (Muscarinic M4) was 544 nM. It also gave a Ki (dopamine D4) of 1860 nM, a Ki (sigma1) of 1950 nM and a Ki (dopamine D3) of 1.2 nM. It also gave a Ki (adrenergic alpha2B) of 1070 nM, a Ki (serotonin 5-HT2B) of 38 nM and a Ki (adrenergic alpha2A) of 2150 nM. It also gave a Ki (Muscarinic M3) of 1780 nM and a Ki (serotonin 5-HT2A) of 310 nM.

From paper PMC11036874, “In vitro characterization of [^125I]HY-3-24, a selective ligand for the dopamine D3 receptor” (Frontiers in Neuroscience, 2024)
